What is called logD is lipophilicity at a set pH, counting ionised and neutral species. A high value points to higher lipophilicity.

This series is described as follows: method code SF-AS, from DOI: 10.1002/zfch.19860260715. Conditions: pH 7.4.
Regarding `CC(=O)NNC(=O)Nc1ccc(C#N)cc1`, the logD came to 0.37. The compound `COc1cccc(NC(=O)NNC(C)=O)c1` came in with a logD of 0.39. The compound `CC(=O)NNC(=O)Nc1ccc(N(C)C)cc1` registered a logD of 0.11. For `CC(=O)NNC(=O)Nc1ccc(C(C)(C)C)cc1` the value was 2.14; for `CC(=O)NNC(=O)Nc1cccc(C(F)(F)F)c1`, 1.63; for `CC(=O)NNC(=O)Nc1cccc(C)c1`, 0.77. Next, `CC(=O)NNC(=O)Nc1ccc(C)cc1`: 0.76; `CC(=O)NNC(=O)Nc1ccc(Oc2ccccc2)cc1`: 2.09; `CCOc1ccc(NC(=O)NNC(C)=O)cc1`: 0.55.

Compound `COc1ccc(NC(=O)NNC(C)=O)cc1` showed a log distribution coefficient (logD) of 0.06.
